EP0341300B1, “STIMULATION OF STEM CELL GROWTH BY THE BRYOSTATINS” (priority 1987, dated 1989)
Entries after “also recorded” stand apart in the source; their conditions may differ.

Key:
[1] = test system: light-density, adherence-depleted normal human bone marrow cells; assay: Granulocyte-macrophage colony formation (CFU-GM) in agar culture; assay type: cell-based
Text: For determining effective concentrations of bryostatins for granulocyte and macrophage colony formation, light density, adherence-depleted human bone marrow cells can be obtained. The cells can be suspended in a suitable medium, such as supplemented McCoy's 5A medium containing 0.3% agar and plated in 35 mm petri dishes as described in Pike et al, Journal of Cell Physiology, Vol. 76, pp. 77-83, 1970. For the bryostatins which have been tested and found to be effective, i.e., 1, 3, 8 and 9, maximum stimulatory concentrations are between about 10⁻⁷M and 10⁻¹⁰M.
Granulocyte-macrophage colony-forming unit (CFU-GM) colonies were enumerated from light-density, adherence-depleted normal human bone marrow cells. Cells were suspended in supplemented McCoy's 5A medium containing 0.3% agar and plated in 35-mm Petri dishes as described in Pike et al, J. Cell Physiol., Vol. 76, pp. 77-83, 1970. Colonies were enumerated following incubation of bone marrow with cells with rHGM-CSF at 50 ng/ml (Genetics Institute) or bryostatin 1 (●) bryostatin 3(o), bryostatin 8(♢), bryostatin 9(+), or bryostatin 13 (▲) at the concentrations indicated. After 14 days of culture at 37°C in a humidified atmosphere containing 7.5% CO₂, colonies of greater or equal to 50 cells were scored. Representative results from one of several experiments are reported as the mean colony number from quadruplicate samples. SEM is within 10% of the mean number.

[2] = test system: P388 lymphocytic leukemia line; settings: reported by others (Pettit et al); test system not named; cited from earlier work
[3] = test system: Normal human peripheral blood neutrophils; assay: Neutrophil chemiluminescence with luminol; assay type: cell-based; settings: 15 min incubation, then 10 uM luminol; rhGM-CSF at 50 ng/ml
Text: To determine the effective amount of bryostatin for neutrophil activation, normal human peripheral blood neutrophil cells can be purified on a density gradient such as a Ficoll gradient. Other immune regulatory cells, such as T-lymphocytes and macrophages can be isolated by standard and known techniques. The neutrophils can be suspended in Dulbecco's phosphate-buffered saline supplemented with calcium and magnesium. One way to monitor neutrophil activation is to observe chemiluminescence. The neutrophils can be incubated for about fifteen minutes with the bryostatin. Then luminol (5-amino-2-3-dihydro-1, 4-phthalazinedione) can be added to a concentration of about 10 uM. Chemiluminescence can be measured in a luminometer as described in Allen et al, Biochemistry and Biophysics Research Communications, Vol. 69, pp. […], 1976.
Normal human peripheral blood neutrophils were highly purified on a double Ficoll density gradient and suspended in Dulbecco's phosphate-buffered saline supplemented with Ca²⁺ and Mg²⁺. First, substances to be tested were incubated with the neutrophils for 15 min. At this point 10 uM luminol (5-amino-2, 3-dihydro-1, 4-phtyalazinedione) was added to each sample. The generation of chemiluminescence was measured in a luminometer at 1.25 min intervals for up to 20 min.

[4] = test system: multi-potential hematopoietic progenitors; assay: Continuous 7-day subcutaneous infusion by osmotic micropump in mice; assay type: in vivo, BDF₁ mice
Method: A dose-response stimulatory effect on multi-potential hematopoietic progenitors was noted. The administration of 144 ug/kg/d (max. dose) increased CFU-S, CFU-GM and BFU-E compared to control animals infused with vehicle alone. CFU-S from spleen cells of treated animals were increased 2-fold (19 vs. 39 colonies per 10⁶ cells injected), while bone marrow CFU-S was not altered. Likewise, CFU-GM colonies from spleen cells were increased 3.6-fold (52 vs. 188 per 10⁶ cells injected), and increased 2-fold (73 vs. 150 per 10⁵ nuc. cells) in bone marrow.

K562 target cells = assay: Activated neutrophil cytotoxicity, 51Cr release; assay type: cell-based, human; settings: for % specific lysis, 7.5 / % specific lysis, column 15 / % specific lysis, column 30: Bryostatin alone (no neutrophils)
Method: Alternatively, neutrophil activation can be assayed using a cytoxicity assay. Purified neutrophils can be incubated at a density of about 3x10⁶ cells per ml with various concentrations of bryostatin. The cells can be washed and added to radiolabelled target cells. K562 tumor cells and ⁵¹ Cr-label can be used to measure cytoxicity. The target cells are preincubated with the radiolabelled substance to effect uptake of the radiolabel. The target cells can be mixed with the neutrophils at various effector to target cell ratios, such as between about 50:1 and 5:1, Release of label from the target cells can be measured either by assaying the supernatant or the cells after centrifugation. Of course, other methods known in the art, such as using other assays of immune regulatory cell cytotoxicity can be used. Bryostatin 1 has activity toward neutrophils at about 10⁻¹⁰ to 10⁻⁷M, with a maximum activation effect on neutrophil cytotoxicity of K562 target cells at a concentration of about 10⁻⁷M.
Furthermore, activation of neutrophil cytotoxicity, as measured by killing of ⁵¹Cr-labeled K562 tumor target cells was also sitmulated by bryostatin 1 (Table 1). Neutrophils were purified as described above. Neutrophils were incubated at a density of 3 x 10⁶ cells per ml first with various concentrations of bryostatin 1 (0.1 uM to 0.1 nM), rhGM-CSF (50 ng/ml), or in medium alone for 2 hr. Following two washes, the cells were added to the ⁵¹Cr-labeled K562 target cells at effector/target cell ratios of 30:1, 15:1, or 7.5:1 as indicated. Control plates containing ⁵¹Cr-labeled K562 cells and either bryostatin or medium alone were evaluated to determine the spontaneous release of isotope. The plates containing the cells were centrifuged at 250 x g for 2 min and then incubated for 3 hrs at 37°C. One hundred microliters of the supernatant was harvested from each well, and the amount of radioactivity present was determined in a gamma scintillation counter. The maximum release of ⁵¹Cr was determined by assaying supernatant obtained from wells in which the cells were completely lysed with 6 M HCl.
Assessment of neutrophil cytotoxicity induced by bryostatin 1. K562 cells were labeled with […] and adjusted to a concentration of 10³ cells per ml in RPMI 1640 medium. Activated neutrophil cytotoxicity was determined. The results are expressed as the percentage of specific isotope released at the indicated effector/target cell ratio calculated as follows: % specific lysis = [(mean cpm of sample - mean cpm spontaneously released)/(mean cpm maximal -mean cpm spontaneously released)] x 100 [formula] . [formula] Maximum induced cpm released as 7364 ± 149. The maximum mean % specific lysis from triplicate determinations from a representative experiment is shown.

normal human bone marrow = assay: Clone transfer assay (growth of transferred clones in secondary plates); assay type: cell-based; settings: primary culture 10 nM bryostatin 1 for 4 days; secondary plates bryostatin 1 10 nM or rhGM-CSF 50 ng/ml, 10 further days
Method: Assays were performed essentially as described in Metcalf et al, Blood, Vol. 67, pp. 37-45, 1986. Briefly, cultures of normal human bone marrow were initiated in medium containing 10 nM bryostatin 1. Following 4 days of growth, clones of 4-8 cells were carefully removed using a glass pipette to avoid contamination by surrounding cells and transferred to secondary plates containing either rhGM-CSF (50 ng/ml) or bryostatin 1 (10 nM) as the source of CSF). After an additional 10 days of culture, the number of clones that had proliferated to form a colony of 40 cells or more was determined. Further growth was not observed in colonies transferred to plates containing no added CSF. (See Figure 3.)
Each symbol (●) represents a colony. Its height in each column is proportional to the number of cells in that colony. The data directly above sections G of the column represent colonies composed entirely of granulocytic cells. The data above sections GM in the column represent colonies composed of both granulocytic and monocytic cells. No colonies in secondary plates were detected that were composed of macrophage-monocyte cells only. The numerator in the fraction at the top of each column represents the number of colonies that developed in the secondary plate, and the denominator represents the total number of clones transferred.

[5] = test system: early BFU-E and late CFU-E human erythroid progenitors; assay: Erythroid progenitor assay, plasma-clot method with erythropoietin; assay type: cell-based; settings: plasma clots, optimal erythropoietin
Text: Amounts of bryostatin which are effective for stimulating hematopoiesis or neutrophil and other immune regulatory cell activation, can be determined using any of the assays known in the art. For example, early and late erythrocyte progenitors can be enumerated using the plasma clot method described in McLeod et al, Blood, Vol. 44, p. 517, 1974. Stimulation of such erythrocyte progenitors requires the presence of erythropoietin.
Assays for both early (BFU-E) and late (CFU-E) progenitors were enumerated as described in McLeod et al, Blood, Vol. 44, p. 517 (1974) using the plasma-clot method and optimal concentrations of erythropoietin. Bryostatin 1 stimulated both early BFU-E and late CFU-E human erythroid progenitors growth in plasma clots. The maximal stimulatory concentration was between 1 and 10 pM, with an inhibitory effect noted at concentrations above 1 nM.

[6] = neutrophils plus 10^-7M, 0.1 µM
[7] = neutrophils plus 10^-8M, 0.01 µM
[8] = neutrophils plus 10^-9M, 0.001 µM
[9] = neutrophils plus 10^-10M, 0.0001 µM

CCC/C=C/C=C/C(=O)O[C@H]1[C@H]2C=C3C[C@H]([C@@H](C)O)OC(=O)C[C@H](O)C[C@@H]4C[C@H](OC(C)=O)C(C)(C)[C@](O)(C[C@@H]5C/C(=C\C(=O)OC)C[C@H](/C=C/C(C)(C)[C@]1(OC(=O)C2)O3)O5)O4 [Bryostatin 3, bryostatin 3]
granulocyte-macrophage colony stimulating activity (in words) ([1]; 14 days of culture): clearly less potent than bryostatin 1 or 8

CCCC(=O)O[C@H]1/C(=C/C(=O)OC)C[C@H]2C[C@H]([C@@H](C)O)OC(=O)C[C@H](O)C[C@@H]3C[C@H](OC(C)=O)C(C)(C)[C@](O)(C[C@@H]4C/C(=C/C(=O)OC)C[C@H](/C=C/C(C)(C)[C@]1(O)O2)O4)O3 [Bryostatin 9, bryostatin 9]
granulocyte-macrophage colony stimulating activity (in words) ([1]; 14 days of culture): much less potent stimulator; also recorded: weaker stimulator; also recorded: only a weak stimulator

CCCC(=O)O[C@H]1C[C@H]2C[C@@H](O)CC(=O)O[C@@H]([C@H](C)O)C[C@@H]3C/C(=C\C(=O)OC)C[C@@](O)(O3)C(C)(C)/C=C/[C@H]3C/C(=C\C(=O)OC)C[C@@H](C[C@](O)(O2)C1(C)C)O3 [Bryostatin 13, bryostatin 13]
antineoplastic activity [2]: retain potent antineoplastic activity
granulocyte-macrophage colony stimulating activity (in words) ([1]; 14 days of culture): totally inactive; also recorded: completely inactive
activation of neutrophil chemiluminescence [3]: not

bryostatin 1
CFU-GM colonies from spleen cells ([4]; 144 ug/kg/d, 7 days): 188 per 10⁶ cells injected
CFU-GM colonies in bone marrow ([4]; 144 ug/kg/d, 7 days): 150 per 10⁵ nuc. cells
CFU-S from spleen cells ([4]; 144 ug/kg/d, 7 days): 39 colonies per 10⁶ cells injected
Erythroid BFU-E colonies from spleen cells ([4]; 144 ug/kg/d, 7 days): 58 per 10⁶ cells
bone marrow BFU-E progenitors ([4]; 144 ug/kg/d, 7 days): no change
bone marrow CFU-S ([4]; 144 ug/kg/d, 7 days): not altered
increase of CFU-GM colonies from spleen cells vs. vehicle control ([4]; 144 ug/kg/d, 7 days): 3.6 fold
increase of CFU-GM colonies in bone marrow vs. vehicle control ([4]; 144 ug/kg/d, 7 days): 2 fold
increase of CFU-S from spleen cells vs. vehicle control ([4]; 144 ug/kg/d, 7 days): 2 fold
increase of erythroid BFU-E colonies from spleen cells vs. vehicle control ([4]; 144 ug/kg/d, 7 days): 2 fold
differential peripheral white blood cell, hemocrit, bone marrow cellularity or spleen weights ([4]; 7-day infusion): not accompanied by a significant change
major organ toxic effects ([4]; infused for 7 days, any of the doses employed): no major organ toxic effects
concentration of maximum activation effect on neutrophil cytotoxicity of K562 target cells (K562 target cells): about 10⁻⁷ M
% specific lysis, 7.5 (K562 target cells; 10^-7M, 0.1 µM): -0.6%
% specific lysis, column 15 (K562 target cells; 10^-7M, 0.1 µM): 0.3%
% specific lysis, column 30 (K562 target cells; 10^-7M, 0.1 µM): 1.5%
% specific lysis, 7.5 (K562 target cells; 10^-8M, 0.01 µM): 0.3%
% specific lysis, column 15 (K562 target cells; 10^-8M, 0.01 µM): 1.0%
% specific lysis, column 30 (K562 target cells; 10^-8M, 0.01 µM): 0.9%
% specific lysis at effector/target ratio 7.5 (K562 target cells; [6]): 7.8%
% specific lysis at effector/target ratio 15 (K562 target cells; [6]): 18.1%
% specific lysis at effector/target ratio 7.5 (K562 target cells; [7]): 0%
% specific lysis at effector/target ratio 15 (K562 target cells; [7]): 2.4%
% specific lysis at effector/target ratio 30 (K562 target cells; [7]): 8.4%
% specific lysis at effector/target ratio 7.5 (K562 target cells; [8]): 0%
% specific lysis at effector/target ratio 15 (K562 target cells; [8]): 1.8%
% specific lysis at effector/target ratio 30 (K562 target cells; [8]): 0.9%
% specific lysis at effector/target ratio 7.5 (K562 target cells; [9]): 0.9%
% specific lysis at effector/target ratio 15 (K562 target cells; [9]): 1.0%
% specific lysis at effector/target ratio 30 (K562 target cells; [9]): -0.8%
growth of transferred clones on secondary plates (normal human bone marrow): produced full-size colonies
colony morphology ([1]; 7 and 14 days of culture): primarily mixed granulocyte-macrophage and pure granulocyte colonies
lowest concentration at which colony stimulating activity was observed ([1]; 14 days of culture): 10 pM
maximal effective concentration for stimulation of CFU-GM ([1]; 14 days of culture, colonies of >= 50 cells scored): 1 to 10 nM
concentrations with an inhibitory effect on erythroid progenitors [5]: above 1 nM
activation of neutrophil chemiluminescence [3]: potent activator

bryostatin 8
lowest concentration at which colony stimulating activity was observed ([1]; 14 days of culture): 10 pM
